From patent US9591978B2, “Methods and compositions for pre-screening patients for treatment with noribogaine” (DemeRX, Inc., priority 2014, dated 2017) come the findings set out here.

The data set in a line: Pharmacokinetics of noribogaine in healthy volunteers (plasma, LCMSMS). Conditions: for AUC0-216 / AUC0-∞ / Cmax / Tmax / t1/2: healthy male volunteers, fasted, n = 6, mean (SD).
Where [1] appears, read: 30 mg and 60 mg noribogaine dose groups.

`CC[C@H]1C[C@@H]2C[C@H]3c4[nH]c5ccc(OC6OC(C(=O)O)C(O)C(O)C6O)cc5c4CCN(C2)[C@@H]13` (some centres unmarked) [Noribogaine glucuronide, noribogaine glucuronide]: under setting [1], the “mean half-life in plasma” value fell in the range of 21 to 23 h, the “time by which detected in plasma of all subjects” value was ≤ 0.75 h and the “time of peak concentrations after noribogaine dosing” value lay within 3 to 4 h. The “proportion of Cmax and AUC relative to noribogaine” value (both dose groups (30 mg, 60 mg)) is listed as 3-4%. Besides, where the note is “single oral 30 mg noribogaine”, the AUC0-216 is 25.7 (9.1) ng · hr/ml, the “AUC0-∞” value is 25.8 (9.3) ng · hr/ml, the Cmax is recorded as 1.8 (0.6) ng/ml and the Tmax is given as 3.0 (0.6) hr. For the same compound, under “single oral 30 mg noribogaine”, the t1/2 was 20.6 (4.9) hr. Further, under “single oral 60 mg noribogaine”, the AUC0-216 is listed as 65.0 (21.5) ng · hr/ml, the “AUC0-∞” value was 67.1 (21.9) ng · hr/ml, the Cmax is reported as 4.1 (1.2) ng/ml and the Tmax is given as 3.8 (1.2) hr. The t1/2 (single oral 60 mg noribogaine) is listed as 23.1 (3.0) hr.
